Reference: PubChem BioAssay AID2060901 (Molecular Pharmacology Branch, DTP, NCI, 2025)

Tested on: 422866-222-R5-J1-PDC complex spheroids viability
Experiment: Anticancer human tumor 422866-222-R5-J1-PDC patient-derived pancreatic adenocarcinoma cell line growth inhibition [RAS]
Settings: for IC50: curve of first compound; for viability, T/C: stronger effect = lower value
From the text: RAS pathway inhibitors in Combinations in Complex Spheroids
A high-throughput screen of multi-cell type tumor spheroids was designed to identify active combinations of RAS pathway inhibitors and targeted small molecules. Complex spheroids include a stromal component modeled by human endothelial cells (HUVEC) and fibroblasts modeled by human mesenchymal stem cells (MSCs). The concentration ranges selected for each drug and investigational agent were based upon clinically achievable concentrations if the clinical Cmax of the agent was known.
Compounds. The drugs and investigational agents: abemaciclib (NSC768073), cobimetinib (NSC768068), divarasib (GDC6063, NSC841802), docetaxel (NSC628503), GDC-1971 (RLY-1971, NSC841576), gemcitabine (NSC613327), inavolisib (NSC800729), ipatasertib (NSC767898), KB-0742 (NSC834161), MRTX-1133 (NSC836407), osimertinib (NSC779217), RMC-4630 (NSC839698), RMC-6236 (NSC851965), RMC-6291 (NSC852671), Ro-3306 (NSC812927), sapanisertib (NSC764658), SN-38 (NSC673596), staurosporine (NSC755774), SY5609 (NSC837396), and tovorafenib (DAY101, NSC766906), were obtained from the National Cancer Institute (NCI) Developmental Therapeutics Program Chemical Repository. The FDA-approved anticancer drug set is available from the NCI Developmental Therapeutics Program. […] The stock solutions were prepared in dimethyl sulfoxide (DMSO, Sigma-Aldrich, St. Louis, MO, cat. D2650) at 800-fold the tested concentration and stored at -70 degrees C prior to their use. All drugs and investigational agents were tested over a range starting from a high concentration at or near the clinical Cmax and decreasing in half-log increments. If the clinical Cmax for an agent had not been determined, the highest concentration tested was 10 microM.
Cell Culture. All cells were maintained in an incubator at 37 degrees C and 5% CO2 with 95% humidity. The PDC lines were cultured according to standard operating procedures established by the NCI PDMR. All PDCs were thawed and cultured in Matrigel-coated flasks prepared with a working solution of 1X Ham's F-12 nutrient mix, without supplementation (Invitrogen, Waltham, MA, cat. 11765054), 100 U/mL penicillin-streptomycin (Invitrogen, cat. 15140122), and 2.5% Matrigel (Corning Inc., Corning, NY, cat. 354248) for the first three passages. The 362531-283-R-J2-PDC and 782815-120-R-J1-PDC lines were cultured in 6C/Colon 1B media, which includes advanced DMEM/F-12 (Thermo Fisher Scientific, cat. 12634028), 10 mM HEPES (Thermo Fisher Scientific, cat. 15630080), 1X GlutaMAX supplement (Thermo Fisher Scientific, cat. 35050061), 0.1 mg/mL primocin (InvivoGen, San Diego, CA, cat. ant-pm-2), 10% defined fetal bovine serum, heat inactivated (HyClone Laboratories Inc., Logan, UT, cat. SH30070.03HI), 50% L-WRN conditioned media (ATCC, cat. CRL-3276), 1.25 mM N-Acetyl-L-cysteine (Sigma-Aldrich, cat. A9165), 10 mM nicotinamide (Sigma-Aldrich, cat. N0636), 1X B-27 supplement (Thermo Fisher Scientific, cat. 17504044), 1X N-2 supplement (Thermo Fisher Scientific, cat. 17502048), 50 ng/mL human EGF (Thermo Fisher Scientific, cat. PHG0311), and 10 microM Y-27632 dihydrochloride (Tocris Bioscience, cat. 1254). The K12877-001-R-J1-PDC line was cultured in 6I media, which includes all 6C/Colon 1B media plus 10 ng/mL human FGF-10 (PeproTech, cat. 100-26), 1 ng/mL human FGF-2 (PeproTech, cat. 100-18B), 1 µM prostaglandin E2 (Tocris Bioscience, cat. 2296), […] hydrocortisone (Sigma-Aldrich, cat. H4001), and […] bovine insulin (Sigma-Aldrich, cat. I6634). The K86415-001-R-J1-PDC line was cultured in 6D media, which includes all 6C/Colon 1B media components minus the L-WRN conditioned media. The 485176-168-R4-J1-PDC was cultured in PANC media, which includes all 6C/Colon 1B media plus 100 ng/mL human FGF-10 (PeproTech, cat. 100-26), 500 nM SB-431542 (Selleckchem, cat. S1067), and 10 nM gastrin (Tocris Bioscience, cat. 3006). […]
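Note: spheroids exposed to compounds for 7 days.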
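Throughout, for viability, T/C: 100% = DMSO vehicle control viability.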

CC1(O)CCCC1n1c(=O)c(C(F)F)cc2cnc(NC3CCN(S(C)(=O)=O)CC3)nc21 (configuration not stated) + CCn1c(-c2cccnc2C(C)OC)c2c3cc(ccc31)N1CCOC(CC(NC(=O)C(C(C)C)N(C)C(=O)C3(F)CCN(C(=O)C#CC(C)(C)N(C)C)CC3)C(=O)N3CCCC(N3)C(=O)OCC(C)(C)C2)C1
IC50 (second compound 0.000949 µM): < 31.6 nM | IC50 (second compound 0.003 µM): < 31.6 nM | IC50 (second compound 0.00949 µM): < 31.6 nM | IC50 (second compound 0.03 µM): < 31.6 nM | IC50 (second compound 0.0949 µM): < 31.6 nM | IC50 (second compound 0.3 µM): < 31.6 nM | viability, T/C (second compound 0.000949 µM, first compound 0.0316 µM): 28.6% | viability, T/C (second compound 0.000949 µM, first compound 0.1 µM): 30.5% | viability, T/C (second compound 0.000949 µM, first compound 0.316 µM): 29.6% | viability, T/C (second compound 0.000949 µM, first compound 1 µM): 31.9% | viability, T/C (second compound 0.000949 µM, first compound 3.16 µM): 40.8% | viability, T/C (second compound 0.000949 µM, first compound 10 µM): 38.2% | viability, T/C (second compound 0.003 µM, first compound 0.0316 µM): 24.8% | viability, T/C (second compound 0.003 µM, first compound 0.1 µM): 34.6% | viability, T/C (second compound 0.003 µM, first compound 0.316 µM): 24.7% | viability, T/C (second compound 0.003 µM, first compound 1 µM): 27.1% | viability, T/C (second compound 0.003 µM, first compound 3.16 µM): 29.8% | viability, T/C (second compound 0.003 µM, first compound 10 µM): 38.2% | viability, T/C (second compound 0.00949 µM, first compound 0.0316 µM): 25.3% | viability, T/C (second compound 0.00949 µM, first compound 0.1 µM): 24.8% | viability, T/C (second compound 0.00949 µM, first compound 0.316 µM): 25.2% | viability, T/C (second compound 0.00949 µM, first compound 1 µM): 26.8% | viability, T/C (second compound 0.00949 µM, first compound 3.16 µM): 34.3% | viability, T/C (second compound 0.00949 µM, first compound 10 µM): 45.2% | viability, T/C (second compound 0.03 µM, first compound 0.0316 µM): 22.9% | viability, T/C (second compound 0.03 µM, first compound 0.1 µM): 20.5% | viability, T/C (second compound 0.03 µM, first compound 0.316 µM): 23.5% | viability, T/C (second compound 0.03 µM, first compound 1 µM): 23% | viability, T/C (second compound 0.03 µM, first compound 3.16 µM): 29.7% | viability, T/C (second compound 0.03 µM, first compound 10 µM): 45.4% | viability, T/C (second compound 0.0949 µM, first compound 0.0316 µM): 21.1% | viability, T/C (second compound 0.0949 µM, first compound 0.1 µM): 20.5% | viability, T/C (second compound 0.0949 µM, first compound 0.316 µM): 22.4% | viability, T/C (second compound 0.0949 µM, first compound 1 µM): 22% | viability, T/C (second compound 0.0949 µM, first compound 3.16 µM): 29.9% | viability, T/C (second compound 0.0949 µM, first compound 10 µM): 43.5% | viability, T/C (second compound 0.3 µM, first compound 0.0316 µM): 15.5% | viability, T/C (second compound 0.3 µM, first compound 0.1 µM): 19.8% | viability, T/C (second compound 0.3 µM, first compound 0.316 µM): 19% | viability, T/C (second compound 0.3 µM, first compound 1 µM): 20.5% | viability, T/C (second compound 0.3 µM, first compound 3.16 µM): 24.9% | viability, T/C (second compound 0.3 µM, first compound 10 µM): 47.3%
